Data published in US20240041042A1, “1-(PYRIDYL)-5-AZINYLPYRAZOLE DERIVATIVES, AND THEIR USE FOR CONTROL OF UNDESIRED PLANT GROWTH” (Bayer Aktiengesellschaft, priority 2020, published 2024).
Read-outs that look alike come from different tables or passages of the source.

Legend:
Format in all cases: in vivo
Zea mays (ZEAMX) [1] = details: for Post-emergence action against ZEAMX in % (crop plant compatibility): 20 g/ha, effect in comparison to untreated controls; for Post-emergence action against ZEAMX in %: crop plant compatibility, effect vs untreated controls
Method in brief: (§1)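 Percent effect on the crop was judged by eye against untreated controls, where 0% means like control and 100% means dead plants. Plants had been sprayed post-emergence at the one-leaf stage and then kept under optimum greenhouse conditions for about 3 weeks.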

[2] = system: Triticum aestivum (TRZAS); details: crop plant compatibility, effect vs untreated controls
Method in brief: as §1

Oryza sativa (ORYSA) [3] = details: crop plant compatibility
Method in brief: as §1

[4] = system: Alopecurus myosuroides (ALOMY); assay: Post-emergence herbicidal action against ALOMY; details: visual rating about 3 weeks after treatment vs untreated controls (100% = plants have died, 0% = like control plants)
Method in brief: (§2)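 Greenhouse plants sprayed at the one-leaf stage, 2–3 weeks after sowing, with WP or EC formulations plus 0.5% additive at 600 l/ha water. Activity rated visually after about 3 weeks versus untreated controls (100% = dead, 0% = like control), at 320 g/ha or lower.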

Brassica napus (BRSNW) [5] = assay: Post-emergence crop plant compatibility, BRSNW; details: effect in comparison to untreated controls
Experimental: (§3) Seeds of monocotyledonous and dicotyledonous weeds and crop plants are placed in sandy loam in plastic or organic planting pots, covered with soil and cultivated in a greenhouse under controlled growth conditions. 2 to 3 weeks after sowing, the test plants are treated at the one-leaf stage. The compounds of the invention, formulated in the form of wettable powders (WP) or as emulsion concentrates (EC), are then sprayed onto the green parts of the plants as aqueous suspension or emulsion with addition of 0.5% additive at a water application rate of 600 l/ha (converted). After the test plants have been kept in the greenhouse under optimum growth conditions for about 3 weeks, the activity of the preparations is rated visually in comparison to untreated controls. For example, 100% activity=the plants have died, 0% activity=like control plants.
(§4) The observed effects on selected crop plants are reported here in comparison to the untreated controls (values in %). The appendices “a”, “b” and “c” give differentiation by dosage used with otherwise the same crop plants tested.

[6] = system: Verconica persica (VERPE); assay: Pre-emergence herbicidal action against VERPE
Method in brief: (§5)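 Dosages of 320 g/ha or less; pre-emergence; WP or EC in aqueous spray, 0.5% additive, 600 l/ha; greenhouse; visual % effect after ~3 wk relative to control pots.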

Zea mays (ZEAMX) [7] = details: pre-emergence, crop plant compatibility, in comparison to untreated controls
Method in brief: (§6)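 Crop injury rated visually in percent against untreated plants roughly 3 weeks after treatment (0% no effect, 100% plants dead). Compounds, as WP or EC with 0.5% additive in 600 l/ha water, were applied to the covering soil right after sowing; greenhouse growth. Suffixes a, b, c denote different dosages.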

Brassica napus (BRSNW) [8] = details: crop plant compatibility, in comparison to untreated controls
Method in brief: as §6

Oryza sativa (ORYSA) [9] = details: pre-emergence, crop plant compatibility, in comparison to untreated controls
Method in brief: as §6

Glycine max (GLXMA) [10] = assay: Post-emergence crop plant compatibility, GLXMA; details: for Post-emergence action against GLXMA in %: 80 g/ha, effect in comparison to untreated controls
Experimental: as §3, §4

[11] = system: Polygonum convolvulus (POLCO); assay: Post-emergence herbicidal action against POLCO; details: dosage 320 g/ha
Method in brief: as §2

[12] = system: Amaranthus retroflexus (AMARE); assay: Post-emergence herbicidal action against AMARE
Method in brief: as §2

Glycine max (GLXMA) [13] = details: pre-emergence, crop plant compatibility, in comparison to untreated controls
Method in brief: as §6

[14] = system: Triticum aestivum (TRZAS); details: pre-emergence, crop plant compatibility, in comparison to untreated controls
Method in brief: as §6

[15] = system: Amaranthus retroflexus (AMARE); assay: Pre-emergence herbicidal action against AMARE; details: 320 g/ha, visual scoring after about 3 weeks vs untreated controls
Method in brief: as §5

Viola tricolor (VIOTR) [16] = assay: Post-emergence herbicidal action against VIOTR
Method in brief: as §2

Setaria viridis (SETVI) = assay: Post-emergence herbicidal action against SETVI
Method in brief: as §2

[17] = system: Verconica persica (VERPE); assay: Post-emergence herbicidal action against VERPE
Method in brief: as §2

Viola tricolor (VIOTR) [18] = assay: Pre-emergence herbicidal action against VIOTR; details: 320 g/ha, Viola tricolor
Method in brief: as §5

[19] = system: Echinochloa crus-galli (ECHCG); assay: Post-emergence herbicidal action against ECHCG
Method in brief: as §2

[20] = system: Matricaria inodora (MATIN); assay: Post-emergence herbicidal action against MATIN; details: dosage 320 g/ha
Method in brief: as §2

Avena fatua (AVEFA) = assay: Post-emergence herbicidal action against AVEFA; details: visual rating about 3 weeks after treatment
Method in brief: as §2

Lolium rigidum (LOLRI) = assay: Post-emergence herbicidal action against LOLRI
Method in brief: as §2

[21] = system: Abutilon theophrasti (ABUTH); assay: Post-emergence herbicidal action against ABUTH; details: 320 g/ha, visual rating about 3 weeks after treatment vs untreated controls (100% = plants have died, 0% = like control plants)
Method in brief: as §2

[22] = system: Pharbitis purpurea (PHBPU); assay: Post-emergence herbicidal action against PHBPU
Method in brief: as §2

[23] = system: Digitaria sanguinalis (DIGSA); assay: Post-emergence herbicidal action against DIGSA; details: 320 g/ha, visual rating about 3 weeks after treatment
Method in brief: as §2

[24] = 20 g/ha, effect vs untreated controls
[25] = 80 g/ha, effect in comparison to untreated controls
[26] = 320 g/ha, effect in comparison to untreated controls

SMILES: COC(=O)C1CCCN1C(=O)COc1nn(-c2ccccn2)c(-c2ccc(F)nc2)c1Br (stereo not drawn) [Example I-110]
- Post-emergence action against ZEAMX in % (crop plant compatibility) (Zea mays (ZEAMX) [1]): 10%
- Post-emergence action against ZEAMX in % (Zea mays (ZEAMX) [1]; 80 g/ha): 10%
- Post-emergence action against TRZAS in % ([2]; 20 g/ha): 0%
- Post-emergence action against ORYSA in % (Oryza sativa (ORYSA) [3]; [24]): 0%
- Post-emergence action against ORYSA in % (Oryza sativa (ORYSA) [3]; [25]): 10%
- Post-emergence action against ALOMY in % ([4]; 80 g/ha): 80%
- Post-emergence action against BRSNW in % (Brassica napus (BRSNW) [5]; 20 g/ha): 10%
- Post-emergence action against BRSNW in % (Brassica napus (BRSNW) [5]; 80 g/ha): 20%
- Pre-emergence action against VERPE in % ([6]; dosage 80 g/ha): 100%
- Pre-emergence action against ZEAMX in % (Zea mays (ZEAMX) [7]; 80 g/ha): 10%
- Pre-emergence action against BRSNW in % (Brassica napus (BRSNW) [8]; 80 g/ha): 20%
- Pre-emergence action against ORYSA in % (Oryza sativa (ORYSA) [9]; 80 g/ha): 10%

SMILES: CCOC(=O)C[S+]([O-])c1nn(-c2ccccn2)c(-c2cncc(F)c2)c1Cl (stereo not drawn) [Example I-150]
- Post-emergence action against ZEAMX in % (Zea mays (ZEAMX) [1]; 80 g/ha): 0%
- Post-emergence action against ZEAMX in % (Zea mays (ZEAMX) [1]; 320 g/ha): 0%
- Post-emergence action against TRZAS in % ([2]; 80 g/ha): 0%
- Post-emergence action against TRZAS in % ([2]; 320 g/ha): 10%
- Post-emergence action against ORYSA in % (Oryza sativa (ORYSA) [3]; [25]): 0%
- Post-emergence action against ORYSA in % (Oryza sativa (ORYSA) [3]; [26]): 0%
- Post-emergence action against GLXMA (Glycine max (GLXMA) [10]; 320 g/ha, effect vs untreated controls): 0%
- Post-emergence action against GLXMA in % (Glycine max (GLXMA) [10]): 0%
- Post-emergence action against POLCO in % [11]: 90%
- Post-emergence action against AMARE in % ([12]; 80 g/ha, visual rating about 3 weeks after treatment vs untreated controls (100% = plants have died, 0% = like control plants)): 80%
- Post-emergence action against AMARE in % ([12]; 320 g/ha, visual rating about 3 weeks after treatment): 80%
- Pre-emergence action against BRSNW in % (Brassica napus (BRSNW) [8]; 80 g/ha): 0%
- Pre-emergence action against GLXMA in % (Glycine max (GLXMA) [13]; 80 g/ha): 0%
- Pre-emergence action against GLXMA in % (Glycine max (GLXMA) [13]; 320 g/ha): 0%
- Pre-emergence action against TRZAS in % ([14]; 80 g/ha): 0%
- Pre-emergence action against TRZAS in % ([14]; 320 g/ha): 0%
- Pre-emergence action against ORYSA in % (Oryza sativa (ORYSA) [9]; 80 g/ha): 20%
- Pre-emergence action against AMARE in % [15]: 80%
- Post-emergence action against VIOTR in % (Viola tricolor (VIOTR) [16]; 320 g/ha): 80%
- Post-emergence action against SETVI in % (Setaria viridis (SETVI); dosage 320 g/ha): 80%

SMILES: CCOC(=O)COc1nn(-c2ccc(Br)c(C)n2)c(-c2cncc(F)c2)c1Br [Example I-161]
- Post-emergence action against ZEAMX in % (Zea mays (ZEAMX) [1]; 80 g/ha): 10%
- Post-emergence action against ZEAMX in % (Zea mays (ZEAMX) [1]; 320 g/ha): 10%
- Post-emergence action against TRZAS in % ([2]; 80 g/ha): 0%
- Post-emergence action against TRZAS in % ([2]; 320 g/ha): 10%
- Post-emergence action against ORYSA in % (Oryza sativa (ORYSA) [3]; [25]): 0%
- Post-emergence action against ORYSA in % (Oryza sativa (ORYSA) [3]; [26]): 0%
- Post-emergence action against GLXMA in % (Glycine max (GLXMA) [10]): 0%
- Pre-emergence action against VERPE in % ([6]; dosage 320 g/ha): 80%
- Pre-emergence action against ZEAMX in % (Zea mays (ZEAMX) [7]; 80 g/ha): 20%
- Pre-emergence action against ZEAMX in % (Zea mays (ZEAMX) [7]; 320 g/ha): 20%
- Pre-emergence action against BRSNW in % (Brassica napus (BRSNW) [8]; 80 g/ha): 10%
- Pre-emergence action against BRSNW in % (Brassica napus (BRSNW) [8]; 320 g/ha): 10%
- Pre-emergence action against GLXMA in % (Glycine max (GLXMA) [13]; 80 g/ha): 0%
- Pre-emergence action against TRZAS in % ([14]; 80 g/ha): 0%
- Pre-emergence action against TRZAS in % ([14]; 320 g/ha): 20%
- Pre-emergence action against ORYSA in % (Oryza sativa (ORYSA) [9]; 80 g/ha): 0%
- Pre-emergence action against ORYSA in % (Oryza sativa (ORYSA) [9]; 320 g/ha): 0%
- Post-emergence action against VERPE in % ([17]; 320 g/ha, VERPE): 80%
- Pre-emergence action against VIOTR in % (Viola tricolor (VIOTR) [18]): 90%
- Post-emergence action against VIOTR in % (Viola tricolor (VIOTR) [16]; 320 g/ha): 80%

SMILES: O=C(COc1nn(-c2ncccc2F)c(-c2ccc(F)nc2)c1C1CC1)OCC1CCOC1 (stereo not drawn) [Example I-289]
- Post-emergence action against ZEAMX in % (crop plant compatibility) (Zea mays (ZEAMX) [1]): 0%
- Post-emergence action against ZEAMX in % (Zea mays (ZEAMX) [1]; 80 g/ha): 10%
- Post-emergence action against TRZAS in % ([2]; 20 g/ha): 20%
- Post-emergence action against ORYSA in % (Oryza sativa (ORYSA) [3]; [24]): 0%
- Post-emergence action against ORYSA in % (Oryza sativa (ORYSA) [3]; [25]): 10%
- Post-emergence action against ALOMY in % ([4]; 80 g/ha): 80%
- Post-emergence action against ALOMY in % ([4]; 320 g/ha): 90%
- Post-emergence action against ECHCG in % ([19]; dosage 80 g/ha): 80%
- Post-emergence action against ECHCG in % ([19]; dosage 320 g/ha): 80%
- Post-emergence action against MATIN in % [20]: 90%
- Post-emergence action against POLCO in % [11]: 80%
- Post-emergence action against BRSNW in % (Brassica napus (BRSNW) [5]; 20 g/ha): 20%
- Post-emergence action against AVEFA in % (Avena fatua (AVEFA); 80 g/ha): 80%
- Post-emergence action against AVEFA in % (Avena fatua (AVEFA); 320 g/ha): 90%
- Post-emergence action against VERPE in % ([17]; 320 g/ha, VERPE): 80%
- Post-emergence action against VERPE in % ([17]; dosage 80 g/ha): 80%
- Post-emergence action against VIOTR in % (Viola tricolor (VIOTR) [16]; 80 g/ha): 80%
- Post-emergence action against VIOTR in % (Viola tricolor (VIOTR) [16]; 320 g/ha): 80%
- Post-emergence action against LOLRI in % (Lolium rigidum (LOLRI); dosage 80 g/ha): 80%
- Post-emergence action against LOLRI in % (Lolium rigidum (LOLRI); dosage 320 g/ha): 90%
- Post-emergence action against ABUTH in % [21]: 80%
- Post-emergence action against PHBPU in % ([22]; dosage 80 g/ha): 80%
- Post-emergence action against PHBPU in % ([22]; dosage 320 g/ha): 80%
- Post-emergence action against DIGSA in % [23]: 80%
- Post-emergence action against SETVI in % (Setaria viridis (SETVI); dosage 80 g/ha): 90%
- Post-emergence action against SETVI in % (Setaria viridis (SETVI); dosage 320 g/ha): 90%
